Test results reported in paper PMC3075274, “Expression and Activity of a Novel Cathelicidin from Domestic Cats” (PLoS ONE, 2011).
Converted amounts (≈) assume the structure as drawn. Read-outs that look alike come from different tables or passages of the source. Where no end group is shown, it is not given here.

Legend:
E. coli D31 = conditions: radial diffusion assay, 10 mM sodium phosphate pH 7.4, peptide 4-1000 ng/µl in 0.05% acetic acid, 3 h 37°C then overlay overnight
Experimental: (§1) A radial diffusion antimicrobial assay was used to assess the antimicrobial activity of feCath and LL-37 [24]. Briefly, overnight bacterial cultures were seeded into fresh tryptic soy broth (TSB). Bacteria was grown to an optical density of 0.2 at A600, pelleted and resuspended in an equal volume of 10 mM sodium phosphate buffer, pH 7.4. Resuspended bacteria were added to underlay minimal-media agarose, and peptide, at various concentrations (1000 ng/µl, 333 ng/µl, 111 ng/µl, 37 ng/µl, 12 ng/µl and 4 ng/µl, dissolved in 0.05% acetic acid), was instilled into adjacent punch-wells. Buffer alone (0.05% acetic acid) was used as the negative control. After 3 hours of incubation at 37°C, overlay nutrient rich agarose was added and allowed to incubate overnight. The following day, zones of clearance were measured. To quantitate zones of clearance, the diameter of the agarose punch (3 mm) was subtracted from the diameter of antimicrobial clearance (in mm), and the resulting number was multiplied by 10.

[1] = test system: Salmonella enterica serovar Typhimurium (IR715)
Experimental: as §1

[2] = test system: Staphylococcus pseudintermedius (clinical isolate); conditions: radial diffusion assay, 10 mM sodium phosphate pH 7.4, peptide 4-1000 ng/µl in 0.05% acetic acid, 3 h 37°C then overlay overnight
Experimental: as §1

Listeria monocytogenes = conditions: radial diffusion assay, 10 mM sodium phosphate pH 7.4, peptide 4-1000 ng/µl in 0.05% acetic acid, 3 h 37°C then overlay overnight
Experimental: as §1

[3] = test system: HaeIII digested Phi-X174 phage DNA; assay: DNA binding assay (gel electrophoresis, retarded migration); conditions: Phi-X174 HaeIII DNA 20 ng/µl; peptide 10, 30, 100 ng/µl; 5 min room temperature, 0.05% acetic acid; agarose gel, ethidium bromide
Experimental: Hae-III digested phage DNA Phi-X174 (20 ng/µl) (Roche) was incubated with varying amounts of LL-37, feCath and magainin (10 ng/µl, 30 ng/µl and 100 ng/µl) for 5 min at room temperature. The entire reaction was resolved using agarose gel electrophoresis (1% w/v) and stained with ethidium bromide.
Figure 6 Gel electrophoresis of DNA binding assay. A DNA ladder (HaeIII digested Phi-X174, 200 ng) was incubated with increasing concentrations of peptide (100 ng, 300 ng, 1000 ng) for 5 minutes in 0.05% acetic acid at room temperature. The reaction mixture was resolved using agarose gel electrophoresis ([…]). Arrow indicates retarded migration of Phi-X174 DNA into the gel.

Compound	MIC (E. coli D31) [µg/mL]	MIC ([1]; serovar Typhimurium (IR715, 3 h, pH 7.4)) [µg/mL]	MIC [2] [µg/mL]	MIC ([1]; Salmonella enterica serovar Typhimurium (IR715), radial diffusion assay, 10 mM sodium phosphate pH 7.4, peptide 4-1000 ng/µl in 0.05% acetic acid, 3 h 37°C then overlay overnight) [µg/mL]	MIC (Listeria monocytogenes) [µg/mL]	DNA binding (retardation of DNA migration into the gel) [3]
QLGELIQQGGQKIVEKIQKIGQRIRDFFSNLRPRQEA [feCath]	21	29				
CC[C@H](C)[C@H](NC(=O)[C@H](CCCCN)NC(=O)[C@H](CCC(=O)O)NC(=O)[C@H](CCCCN)NC(=O)[C@H](CO)NC(=O)[C@H](CCCCN)NC(=O)[C@H](CCCNC(=N)N)NC(=O)[C@H](Cc1ccccc1)NC(=O)[C@H](Cc1ccccc1)NC(=O)[C@H](CC(=O)O)NC(=O)CNC(=O)[C@H](CC(C)C)NC(=O)[C@@H](N)CC(C)C)C(=O)NCC(=O)N[C@@H](CCCCN)C(=O)N[C@@H](CCC(=O)O)C(=O)N[C@@H](Cc1ccccc1)C(=O)N[C@@H](CCCCN)C(=O)N[C@@H](CCCNC(=N)N)C(=O)N[C@H](C(=O)N[C@H](C(=O)N[C@@H](CCC(N)=O)C(=O)N[C@@H](CCCNC(=N)N)C(=O)N[C@H](C(=O)N[C@@H](CCCCN)C(=O)N[C@@H](CC(=O)O)C(=O)N[C@@H](Cc1ccccc1)C(=O)N[C@@H](CC(C)C)C(=O)N[C@@H](CCCNC(=N)N)C(=O)N[C@@H](CC(N)=O)C(=O)N[C@@H](CC(C)C)C(=O)N[C@H](C(=O)N1CCC[C@H]1C(=O)N[C@@H](CCCNC(=N)N)C(=O)N[C@H](C(=O)N[C@@H](CCC(=O)O)C(=O)N[C@@H](CO)C(=O)O)[C@@H](C)O)C(C)C)[C@@H](C)CC)C(C)C)[C@@H](C)CC [LL-37, reference compound]	5 (≈ 1.11 µM)		15 (≈ 3.34 µM)	12 (≈ 2.67 µM)	7 (≈ 1.56 µM)	
Magainin						lacks this ability to bind DNA
